Measurements reported in PMC10529594, “Strasseriolides display in vitro and in vivo activity against trypanosomal parasites and cause morphological and size defects in Trypanosoma cruzi” (PLOS Neglected Tropical Diseases, 2023).
Where “and” joins values, the source holds several entries; their conditions need not be identical. Equal values may be shown once. Read-outs that look alike come from different tables or passages of the source.

How the values were obtained:
[1] = tested on: T. cruzi Tulahuen C4 trypomastigotes; assay: T. cruzi trypomastigote viability assay (resazurin fluorescence); type: cell-based, Trypanosoma cruzi; conditions: Trypanosoma cruzi, TULAHUEN, 72 h, Tulahuen C4, 72 hours at 37°C
Experimental: Tulahuen T. cruzi trypomastigotes were recovered 6 days post infection from the supernatant of harvested infected L6 cells cultures after 3 hours at 37°C. 90 μL of parasite culture at a density of 5 × 10^6 cells in RPMI 1640 media were dispensed into 96 Nunc flat bottom assay plates containing 10 μL of each compound.
In the fluorescence assay, plates were incubated for 24 and 48 hours after which 10 μL of the resazurin solution were added to each well. Plates were further incubated for 24 hours and fluorescence was measured at 550/590 nm using a Tecan Infinite 200 microplate reader. […] Final maximal DMSO percentage in the well was 0.1% and compound concentrations ranged from 0.2 to 100 μM.

[2] = tested on: T. cruzi Tulahuen C4 epimastigotes; assay: T. cruzi epimastigotes growth inhibition assay (resazurin); type: cell-based, Trypanosoma cruzi; conditions: for EC50: Tulahuen C4, 72 h, resazurin
Experimental: (§1) The Trypanosoma cruzi Tulahuen strain used is a genetically modified strain that expresses the Escherichia coli β-galactosidase gene, lacZ [31]. It was kindly supplied by Marcel Kaiser (Swiss Tropical and Public Health Institute). The T. cruzi Tulahuen C4 strain was cultured in RPMI-1640 supplemented with 10% inactivated FBS (iFBS), 1.7 mM L-glutamine, 100 U/mL penicillin, and […] at 37°C and 5% CO2. L6 rat skeletal muscle cells were purchased from ATCC (reference CRL-1458) and used as host cells for infection with transgenic T. cruzi trypomastigotes. Epimastigotes were obtained by differentiation in LIT medium with 10% iFBS at 28°C from trypomastigote forms.
A resazurin-based assay was set up in 96-well microplates containing 10 μL of test compound at concentrations ranging from 0.39 to 200 μM and log phase parasites seeded at 2 × 10^5 cells per well in a final volume of 100 μL. Maximum DMSO percentage in the well was 0.2%. Positive and negative growth controls were included. Following 72 hour incubation at 28°C with orbital shaking, 10 μL of resazurin solution were added to each well and the plates were returned to the incubator for 4 hours. Resazurin reduction was correlated to cell viability by fluorescence measurement with excitation and emission wavelength bands centered at 550 and 590 nm, respectively, in a Tecan Infinite 200 microplate reader.

[3] = tested on: T. cruzi Tulahuen C4 intracellular amastigotes; assay: β-D-galactosidase transgenic T. cruzi assay (intracellular amastigotes in L6 cells, CPRG); type: cell-based; conditions: Trypanosoma cruzi; for inhibition at 0.00152588 µM / inhibition at 0.00305176 µM / inhibition at 0.00610352 µM / inhibition at 0.012207 µM / inhibition at 0.0244141 µM / inhibition at 0.0488281 µM / inhibition at 0.0976562 µM / inhibition at 0.195312 µM / inhibition at 0.390625 µM / inhibition at 0.78125 µM / inhibition at 1.5625 µM / inhibition at 3.125 µM / inhibition at 6.25 µM / inhibition at 12.5 µM / inhibition at 25 µM / inhibition at 50 µM: TULAHUEN, L6, T. cruzi amastigotes, 96-hour treatment, read-out: Growth inhibition (%) Average; for EC50: Tulahuen C4 in L6 cells, 96 h, CPRG
Experimental: as §1
A Thermo Scientific Multidrop Combi dispenser was used to dispense 55 μL of T. cruzi infected L6 cells (2 ×10^3 cells per well) into 384-well Corning assay plates already containing 5 μL of each compound at concentrations ranging from 0.0015 to 50 μM and controls. The plates were incubated at 37°C for 96 hours upon which 15 μL of lysis buffer (0.5 mM CPRG, 0.5% NP40) were added to each well and further incubated for 4 hours in the dark. Absorbance at 585 nm was measured in a Perkin Elmer Envision plate reader.

[4] = tested on: T. cruzi epimastigotes; assay: FACS analysis of T. cruzi epimastigotes (cell cycle, size and complexity); type: cell-based, Trypanosoma cruzi; conditions: 72 h
Experimental: FACS analysis was used to study cell cycle progression and cellular parameters such as size and complexity. 5 × 10^6 T. cruzi epimastigotes were harvested by centrifugation at 1,000×g and 4°C after 72 hours of incubation in a 6-well plate in the presence and in absence of test compounds. Pellets of cells were washed with 5 mL of PBS and fixed in a solution of 70% ice-cold ethanol/PBS at -20°C overnight. Cells were then collected by centrifugation, washed with PBS and stained with 40 μg/mL of propidium iodide in PBS containing 10 μg/mL of RNase A at 37°C for 30 minutes. Fluorescence was monitored with a Becton Dickinson FACSCalibur using BD CellQuest Pro version 4.0.2 software with a total of 10,000 events acquired for each sample. The different cell populations as well as mean cellular parameters were determined by FlowJo software.

[5] = tested on: L. donovani MHOM/ET/67/HU3 transgenic intracellular amastigotes; assay: L. donovani intracellular amastigote assay (luciferase, THP-1 macrophages); type: cell-based; conditions: Leishmania donovani, THP-1, 72 h, read-out: EC50 L. donovani
Experimental: Leishmania donovani MHOM/ET/67/HU3 cells with the luciferase gene integrated into the parasite genome was obtained as described. Parasites were grown at 28°C in RPMI 1640-modified medium supplemented with 20% heat-inactivated fetal bovine serum (iFBS, Invitrogen) with […] of hygromycin B.
THP-1 cells were differentiated into macrophages with 20 ng/mL of PMA in a 96-well plate at 3 × 10^4 cells per well for 48 hours followed by 24 hours of culture in fresh medium. Cells were then infected with transgenic stationary L. donovani MHOM/ET/67/HU3 promastigotes expressing the luciferase gene at a multiplicity of infection (MOI) of 10. A volume of 100 μL of culture media containing the test compounds was added to each well and the plates were incubated at 37°C for 72 hours. Luminescence was measured using the Promega kit luciferase assay system.

[6] = tested on: L6 rat myoblast cells; assay: Cytotoxicity evaluation in L6 cells (resazurin); type: cell-based; conditions: for EC50: Rattus norvegicus, Myoblast, 72 h, read-out: EC50 L6
Experimental: One hundred microliters of supplemented RPMI 1640 medium containing the compounds and controls were added to L6 rat myoblast cells previously seeded (4,000 cells per well) in a 96-well microplate. After 72 hours at 37°C the viable cell number was determined by resazurin reduction. 20 μL of resazurin at 0.11 mg/mL in PBS 1X were added to each well and incubated in the dark for 2 hours at 37°C. Cell viability was estimated by measuring the final fluorescence at 570–590 nm in a Tecan Infinite F200 plate reader.

[7] = Trypanosoma cruzi, TULAHUEN, 72 h

Structure (SMILES) | EC50 [1] | EC50 [2, 7] | inhibition at 0.00152588 µM [3] | inhibition at 0.00305176 µM [3] | inhibition at 0.00610352 µM [3] | inhibition at 0.012207 µM [3] | inhibition at 0.0244141 µM [3] | inhibition at 0.0488281 µM [3] | inhibition at 0.0976562 µM [3] | inhibition at 0.195312 µM [3] | inhibition at 0.390625 µM [3] | inhibition at 0.78125 µM [3] | inhibition at 1.5625 µM [3] | inhibition at 3.125 µM [3] | inhibition at 6.25 µM [3] | inhibition at 12.5 µM [3] | inhibition at 25 µM [3] | inhibition at 50 µM [3] | EC50 [3] | EC50 [5] | further results
O=C(Cn1ccnc1[N+](=O)[O-])NCc1ccccc1 [Benznidazole, benznidazole] | 3.93 µM | 13 µM | 5.83% | 3.46% | 5.29% | 6.58% | 1.91% | 12.4% | 10.6% | 16.3% | 10.8% | 34.7% | 74% | 104% | 101% | 103% | 106% | 105% | 1 µM | – | EC30, epimastigotes ([2]; 72 h, from dose-response curve): 7.5 µM; EC70, epimastigotes ([2]; 72 h, from dose-response curve): 22.5 µM; EC90 [2, 7]: 96 µM; Foward Scatter (FSC) - Geometric Mean, single experiment ([4]; EC30): 93.4 and 92.7; Foward Scatter (FSC) - Geometric Mean, Average ([4]; EC30, control 96.65): 93.05; Foward Scatter (FSC) - Geometric Mean, single experiment ([4]; EC70): 96.7 and 91.2; Foward Scatter (FSC) - Geometric Mean, Average ([4]; EC70, control 96.65): 93.95; Foward Scatter (FSC) - Geometric Mean, single experiment ([4]; EC90): 75.3 and 74.1; Foward Scatter (FSC) - Geometric Mean, Average ([4]; EC90, control 96.65): 74.7
C/C1=C\[C@H](C)CCC(=O)/C(C)=C/[C@H](C)C[C@@H](C)CC[C@@H]([C@@H](C)C(=O)O)OC(=O)[C@@H](C)C1 [Strasseriolide A, strasseriolide A] | > 25 µM | > 50 µM | 11.7% | 9.68% | 6.95% | 5.87% | 3.26% | 6.89% | 2.91% | 12.5% | 4.42% | 3.14% | 3.55% | 3.27% | 4.63% | 11.4% | 39.4% | 86.7% | 31 µM | > 15 µM | cell growth reduction, epimastigotes ([2]; 72-hour exposure, 50 μM): less than 50%; Selectivity index T. cruzi Tulahuen C4 versus L6 cells [6]: > 1; EC50 ([6]; resazurin): > 50 µM
C/C1=C\[C@H](C)CC[C@@H](O)/C(C)=C/[C@H](C)C[C@@H](C)CC[C@@H]([C@@H](C)C(=O)O)OC(=O)[C@@H](C)C1 [Strasseriolide B, strasseriolide B] | < 0.2 µM | < 0.4 µM | 4.52% | 4.82% | 6.25% | 11.4% | 8.7% | 6.79% | 10.8% | 52.7% | 98.7% | 112% | 113% | 113% | 113% | 113% | 115% | 117% | 0.21 µM | 0.032 µM | EC50 [2]: < 0.39 µM; Selectivity index T. cruzi Tulahuen C4 versus L6 cells [6]: 1; EC50 [6]: 0.3 µM
